Test results taken from patent publication US20220226357A1, “METHODS FOR TREATING NEURODEGENERATIVE DISORDERS” (THOMAS JEFFERSON UNIVERSITY, priority 2019, published 2022).

System: AAV-A53T α-synuclein rat model
Experiment: Size of α-synuclein-positive aggregates in the striatum
Format: in vivo
Conditions: for maximum aggregate size measured: striatum
From the text: Fixed tissue blocks were immersed in 30% sucrose for cryoprotection and sectioned frozen on a sliding microtome (30 μm section thickness for striatal sections; 40 μm section thickness for SN sections). Sections through the rostro-caudal extent of the SN were collected and every sixth section from the SN was processed for tyrosine hydroxylase (TH) immunohistochemistry to be used for stereological cell counting. Three striatal sections from approximately the level of the decussation of the anterior commissure in each case were processed for α-synuclein immunohistochemistry. For immunohistochemistry, sections were washed and permeabilized with PBS containing 0.2% Triton X-100. Endogenous peroxidase activity was quenched using 3% hydrogen peroxide in PBS containing 0.2% Triton X-100. Sections were then blocked in PBS/triton X-100 containing 10% normal goat serum and 2% BSA, followed by primary antibody incubation (TH (rabbit anti-TH, 1:2,000, Pel-Freez); α-synuclein (mouse anti-α-synuclein clone 211; 1:2000, Millipore) overnight at 4° C. The following day, sections were washed in PBS and incubated in biotinylated secondary antibody (goat-anti-rabbit 1:4000 for TH; goat-anti-mouse 1:2000 for α-synuclein 1:2000, VECTOR Laboratories), followed by additional washes and incubation in avidin biotin complex (VECTASTAIN Elite ABC system, VECTOR Laboratories). The reaction product was visualized with 3,3′-diaminobenzidine (DAB) (Immpact DAB, VECTOR Laboratories). Sections were then mounted, dehydrated, cleared and coverslipped. Sections stained for visualization of TH and to be used for stereological cell counting were counterstained with cresyl violet prior to coverslipping. […] Slides were coded and analyzed blindly. […] Cells were then counted at high power (100×) using a counting frame measuring 60 μm^2. […] This process was repeated for each section in the series for a given animal, and a total of 7-8 sections/animal were analyzed. Nissl-stained cells were counted concurrently in the same sections using the same sampling parameters. […]
Immunoblotting for α-synuclein expression was performed using the Wes western blot system (ProteinSimple). […] The sizes of α-synuclein-positive swelling/aggregates were measured in 3 fields (one medial, one central and one lateral) from 1 coronal section (at the approximate level of the decussation of the anterior commissure). Photographs were captured using a 40× objective on a Nikon Eclipse Ni microscope and α-synuclein-positive structures with an area >5 μm2 were considered as aggregates and were measured using Nikon MS Elements AR software. Data are presented as the distribution of aggregate sizes in the three striatal regions measured.

[1] = delayed start GM1 (3 weeks after AAV-A53T)
[2] = early start GM1 (24 hours after AAV-A53T)

GM1 ganglioside
size distribution of striatal α-synuclein-positive aggregates, GM1 vs saline [1]: greater numbers of larger sized aggregates in the saline-treated group compared to the GM1 group
maximum aggregate size measured [1]: 29.3 μm^2
size distribution of striatal α-synuclein-positive aggregates, GM1 vs saline [2]: larger numbers of smaller sized aggregates and fewer larger sized aggregates
maximum aggregate size measured [2]: 28.8 μm^2
